IC50 data for 55 compounds are collected here from patent US20090325948A1, “INHIBITORS OF UNDECAPRENYL PYROPHOSPHATE SYNTHASE” (priority 2006, published 2009).

Each structure is given as a SMILES string.

The experiment has as its target T1, Streptococcus pneumonia UPPS (Streptococcus pneumoniae serotype 4, UniProt Q97SR4).
T1 construct: His-tag (N); made in house; this is inferred
T1 sequence (Q97SR4 1-252): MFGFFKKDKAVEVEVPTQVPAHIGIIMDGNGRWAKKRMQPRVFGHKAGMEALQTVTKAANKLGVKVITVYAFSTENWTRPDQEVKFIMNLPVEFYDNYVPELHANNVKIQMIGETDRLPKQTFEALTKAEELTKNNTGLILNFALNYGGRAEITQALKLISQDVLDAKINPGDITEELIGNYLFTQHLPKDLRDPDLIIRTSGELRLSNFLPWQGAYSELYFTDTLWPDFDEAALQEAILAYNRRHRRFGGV
Kind of experiment: UPPS binding/inhibition assay (inorganic phosphate quantified with Biomol Green). It is filed as biochemical. The following applies: 20 min preincubation; FPP 3 μM, IPP 16 μM. The procedure: The ability of several of the compounds described herein to bind to UPPS was also tested as follows.
Streptococcus pneumonia UPPS was cloned into pET-15b, expressed and purified as an N-terminal His-tag fusion using affinity chromatography. The working stock of UPPS was prepared by mixing the purified enzyme with liposome made from E. coli total lipids extract (Avanti Polar Lipis, Inc., Alabaster, Ala.). The substrates FPP and IPP and inorganic pyrophosphatase were purchased from Sigma. Biomol Green reagent was from Biomol International (Plymouth Meeting, Pa.). All other chemicals were from Sigma at the highest grade.
For testing a compound, UPPS was first incubated with the compound at desired concentrations for 20 minutes in the UPPS reaction buffer that contained 100 mM Tris-HCl, pH 7.3, 50 mM KCl, 1 mM MgCl2, 0.01% Triton X-100, and 20 μg/mL BSA. The reaction was then initiated by the addition of a mixture of FPP, IPP, and E. Coli inorganic phosphatase made in the same UPPS reaction buffer. The final concentrations for FPP and IPP were 3 μM and 16 μM, respectively. The inorganic phosphate generated in the reactions was then quantified with Biomol Green reagent, which was then used to determine the rate of the reaction and the inhibitory activity of the compound.
For example, the results of the binding assay for several compounds are shown the table below: […]
By IC50 is commonly meant the concentration that gives 50% inhibition. The compound `O=C(Nc1ccc(C2CCCCC2)cc1)c1c(O)c2cscc2[nH]c1=O` [compound 4] showed an IC50 of 0.01 to 10 µM.
As for `O=C(Nc1cccc(Cl)c1Cl)c1c(O)c2c([nH]c1=O)CCCC2` [compound 100], the IC50 was above 50 µM.
Turning to `Cn1c(=O)c(C(=O)Nc2ccc(Oc3ccccc3)cc2)c(O)c2ccccc21` [compound 168], the IC50 is 0.01 to 10 µM.
Compound `O=C(Nc1ccc(N2CCCCC2)cc1)c1c(O)c2c([nH]c1=O)CNCC2` [compound 120] registered an IC50 of 0.01 to 10 µM.
To `C#CCOC(=O)N1CC[C@@H]2NC(=O)C(C(=O)Nc3ccc(N4CCCCC4)cc3)=C(O)[C@H]2C1` [compound 73] belongs above 50 µM.
The compound `CC(C)(C)OC(=O)N1CCC2NC(=O)C(C(=O)Nc3ccc(N4CCN(CCO)CC4)cc3)=C(O)C2C1` (stereo not shown) [compound 59] yielded an IC50 of 0.01 to 10 µM.
`CC(C)(C)C(=O)N1CCc2[nH]c(=O)c(C(=O)Nc3ccc(N4CCCCC4)cc3)c(O)c2C1` [compound 128] had an IC50 of 0.01 to 10 µM.
Take `O=C(Nc1ccc(Oc2ccccc2)cc1)c1c(O)c2ccccc2[nH]c1=O` [compound 142]: the IC50 was 0.01 to 10 µM.
Compound `CC(C)(C)C1CCC(NC(=O)c2c(O)c3cscc3[nH]c2=O)CC1` (stereo not shown) [compound 11] yielded an IC50 of 0.01 to 10 µM.
With `O=C(Nc1ccc(N2CCCCC2)cc1)c1c(O)c2c([nH]c1=O)CCNC2` [compound 121], the IC50 was in the range of 0.01 to 10 µM.
Take `CCCCCCOc1ccc(NC(=O)c2c(O)c3cc(-c4ccccc4)sc3[nH]c2=O)cc1` [compound 110]: the IC50 fell in the range of 0.01 to 10 µM.
`O=C(Nc1ccc(Oc2ccccc2)cc1)c1c(O)c2cscc2[nH]c1=O` [compound 2] came in with a 50% inhibitory concentration (IC50) of 0.01 to 10 µM.
Take `O=C(Nc1ccc(C2CCCCC2)cc1)C1=C(O)[C@H]2CCC[C@H]2NC1=O` [compound 45]: the IC50 is 0.01 to 10 µM.
Consider `O=C(Nc1ccc(N2CCCCC2)cc1)C1=C(O)[C@H]2CNCC[C@@H]2NC1=O` [compound 46], for which the IC50 lay within 0.01 to 10 µM.
As for `O=C(Nc1nc2ccc(Br)cc2s1)c1c(O)c2c([nH]c1=O)CCCC2` [compound 104], the IC50 was 0.01 to 10 µM.
In turn, `COCCOC(=O)N1CC[C@@H]2NC(=O)C(C(=O)Nc3ccc(N4CCCCC4)cc3)=C(O)[C@H]2C1` [compound 72] gave an IC50 of 0.01 to 10 µM.
The compound `O=C(Nc1ccc(-c2ccccc2)cc1)c1c(O)c2cc(Br)ccc2[nH]c1=O` [compound 159] gave an IC50 of 0.01 to 10 µM.
`Cn1c(=O)c(C(=O)Nc2ccc(OC(F)(F)F)cc2)c(O)c2ccccc21` [compound 175] yielded an IC50 of 0.01 to 10 µM.
The compound `O=C(Nc1ccc(N2CCN(CCO)CC2)cc1)C1=C(O)C2CNCCC2NC1=O` (stereo not shown) [compound 64] displayed an IC50 above 50 µM.
To `CC(=O)N1CCc2[nH]c(=O)c(C(=O)Nc3ccc(N4CCCCC4)cc3)c(O)c2C1` [compound 126] belongs 0.01 to 10 µM.
Turning to `CC(C)(C)OC(=O)N1CCC2NC(=O)C(C(=O)Nc3ccc(Oc4ccccc4)cc3)=C(O)C2C1` (stereo not shown) [compound 34], the IC50 was in the range of 0.01 to 10 µM.
Take `O=C(NC1CCCCCC1)c1c(O)c2c([nH]c1=O)CCCC2` [compound 92]: the IC50 fell in the range of 0.01 to 10 µM.
`O=C(Nc1ccc(C(F)(F)F)nc1)c1c(O)c2ccccc2[nH]c1=O` [compound 157] showed an IC50 of 0.01 to 10 µM.
The figure for `CC(C)(C)OC(=O)N1CCC2C(O)=C(C(=O)Nc3ccc(N4CCCC4)cc3)C(=O)NC2C1` (stereo not shown) [compound 54] is 0.01 to 10 µM.
Compound `O=C(Nc1ccc(C2CCCCC2)cc1)C1=C(O)[C@H]2CNCC[C@@H]2NC1=O` [compound 51] came in with an IC50 of 0.01 to 10 µM.
For `O=C(Nc1ccc(N2CCCC2)cc1)C1=C(O)C2CCNCC2NC1=O` (stereo not shown) [compound 61], the 50% inhibitory concentration (IC50) lay within 0.01 to 10 µM.
Regarding `CCCN(CC)c1ccc(NC(=O)c2c(O)c3ccc(N4CCNCC4)cc3[nH]c2=O)cc1` [compound 178], the IC50 lay within 0.01 to 10 µM.
For `CCCOC(=O)c1ccc(NC(=O)c2c(O)c3c([nH]c2=O)CCCC3)cc1` [compound 124], the IC50 fell in the range of 0.01 to 10 µM.
Consider `CNC(=O)c1ccccc1NC(=O)c1c(O)c2c([nH]c1=O)CCCC2` [compound 98], for which the IC50 was 0.01 to 10 µM.
As to `O=C(Nc1ccc(N2CCCCC2)cc1)C1=C(O)[C@H]2CNCC[C@H]2NC1=O` [compound 47], the IC50 fell in the range of 0.01 to 10 µM.
`O=C(NC1CCCCC1)c1c(O)c2ccccc2[nH]c1=O` [compound 137] returned an IC50 of 0.01 to 10 µM.
Consider `O=C(NCCN1CCOCC1)c1c(O)c2ccccc2[nH]c1=O` [compound 154], for which the IC50 fell in the range of 0.01 to 10 µM.
Compound `CC(C)CCNC(=O)c1c(O)c2c([nH]c1=O)CCCC2` [compound 87] displayed an IC50 of 0.01 to 10 µM.
In turn, `O=C(Nc1ccc(N2CCCCC2)cc1)c1c(O)c2cc(N3CCNCC3)ccc2[nH]c1=O` [compound 179] showed an IC50 of 0.01 to 10 µM.
For `O=C(Nc1ccc(C(F)(F)F)cc1)c1c(O)c2cc(-c3ccccc3)sc2[nH]c1=O` [compound 111], the IC50 fell in the range of 10 to 50 µM.
`O=C(Nc1ccc(C(F)(F)F)cc1)C1=C(O)[C@H]2CCC[C@H]2NC1=O` [compound 40] yielded an IC50 of 0.01 to 10 µM.
To `COc1cccc2[nH]c(=O)c(C(=O)Nc3ccc(Oc4ccccc4)cc3)c(O)c12` [compound 144] belongs above 50 µM.
The compound `O=C(NNC(=O)c1c(O)c2ccccc2[nH]c1=O)c1ccccc1Cl` [compound 131] yielded an IC50 of 0.01 to 10 µM.
Compound `CCCN(CC)c1ccc(NC(=O)c2c(O)c3ccc(N4CCN(C)CC4)cc3[nH]c2=O)cc1` [compound 180] came in with an IC50 of 0.01 to 10 µM.
In turn, `O=C(Nc1ccc(N2CCCCC2)cc1)C1=C(O)C2CNCCC2NC1=O` (stereo not shown) [compound 37] returned an IC50 of 0.01 to 10 µM.
In turn, `CC(C)(C)OC(=O)N1CCC2NC(=O)C(C(=O)Nc3ccc(C4CCCCC4)cc3)=C(O)C2C1` (stereo not shown) [compound 29] yielded an IC50 of 0.01 to 10 µM.
In turn, `O=C(Nc1ccccc1Oc1ccccc1)c1c(O)c2ccccc2[nH]c1=O` [compound 162] displayed an IC50 of 0.01 to 10 µM.
In turn, `O=C(Nc1ccc(Oc2ccccc2)cc1)C1=C(O)C2CNCCC2NC1=O` (stereo not shown) [compound 28] gave an IC50 of 0.01 to 10 µM.
Compound `COC(=O)N1CCc2[nH]c(=O)c(C(=O)Nc3ccc(N4CCCCC4)cc3)c(O)c2C1` [compound 129] came in with an IC50 of 0.01 to 10 µM.
For the compound `O=C(Nc1cccc(Br)c1)c1c(O)c2c([nH]c1=O)CCCC2` [compound 93], the IC50 is above 50 µM.
To `O=C(Nc1ccc(N2CCCCC2)cc1)C1=C(O)C2CCNCC2NC1=O` (stereo not shown) [compound 32] belongs 0.01 to 10 µM; to `O=C(Nc1ccc(C2CCCCC2)cc1)c1c(O)c2cc(-c3ccccc3)sc2[nH]c1=O` [compound 107], 0.01 to 10 µM; to `COc1ccc(-c2nc(NC(=O)c3c(O)c4ccccc4n(C)c3=O)nn2-c2ccc(OC)cc2)cc1` [compound 173], 0.01 to 10 µM.
`CCN1CC[C@@H]2NC(=O)C(C(=O)Nc3ccc(N4CCCCC4)cc3)=C(O)[C@H]2C1` [compound 69]: the IC50 was 0.01 to 10 µM.
The figure for `COc1ccc(-c2nc(NC(=O)c3c(O)c4cscc4[nH]c3=O)nn2-c2ccc(OC)cc2)cc1` [compound 10] is 0.01 to 10 µM; for `O=C(Nc1ccc(-c2ccccc2)cc1)C1=C(O)C2CNCCC2NC1=O` (stereo not shown) [compound 26] it is 0.01 to 10 µM; for `O=C(NCc1ccccc1)c1c(O)c2c([nH]c1=O)CCCC2` [compound 84] it is 0.01 to 10 µM.
Consider `CCN1C[C@@H]2NC(=O)C(C(=O)Nc3ccc(C4CCCCC4)cc3)=C(O)[C@H]2C1` [compound 20], for which the IC50 is 0.01 to 10 µM.
To `O=C(Nc1ccc(N2CCCCC2)cc1)C1=C(O)C2CCNCC2NC1=O` (stereo not shown) [compound 49] belongs 0.01 to 10 µM.
Regarding `O=C(Nc1ccc(-c2ccccc2)cc1)C1=C(O)[C@H]2CNC[C@@H]2NC1=O` [compound 17], the IC50 lay in the range of 0.01 to 10 µM.
